Results taken from patent US20200383327A1, “METHOD OF IMPROVING PLANT PERFORMANCE” (The State of Israel, Ministry of Agriculture & Rural …, priority 2018, published 2020).

How the values were obtained:
Format in all cases: in vivo
[1] = system: Oidium neolycopersici; assay: Oidium powdery mildew on tomato plants; details: 24 days after treatment
Method: The Phe (P) solution was applied by spraying and by drench on the tomato plants at 3 days before and 4 hours before incubation in the greenhouse. Incidence of Oidium powdery mildew was evaluated 24 days after treatment. […] The Phe and shatakh 90 solutions were applied by spraying on the tomato plants at 3 days before and 4 hours before incubation in the greenhouse. Incidence of Oidium powdery mildew was evaluated 24 days after treatment.
Conidia of Oidium neolycopersici were collected from leaves of a diseased plant, suspended in water and sprayed on the tomato plants. The plants were kept in a greenhouse with 18-28° C. Disease severity of Oidium powdery mildew was evaluated on a scale of 0-100% where 100=whole canopy covered by disease symptoms.

[2] = system: Bemisia tabaci; assay: Silver leaf whitefly incidence on tomato leaves; details: 4 mM Phe solution, drench or spray, each treatment; 30 days after treatment; FIG. 10
Method: FIG. 10 is a bar graph showing the effect of 4 mM Phe solution on the severity of silver leaf white fly (SLWF) on tomato plants. The Phe solution was applied by spraying and by drench on the tomato plants at 3 days before and 4 hours before incubation in the greenhouse. Incidence of SLWF was evaluated on a representative leaf 30 days after treatment.
The insect silver leaf whitefly Bemisia tabaci Gennadius (commonly also sweet potato whitefly) occurred naturally on the treated tomato plants. The plants were kept in a greenhouse with 18-28° C. Incidence of insect individuals' number on the 10th leaf of the tomato plants was counted.

[3] = system: Tuta absoluta; assay: Tomato leaf miner damage on tomato plants, natural infestation in greenhouse
Method: FIGS. 3A-3E are images and bar graphs showing the effect of 4 mM of phenylalanine applied by drenching or spraying on the severity of […] in tomato, 13 days post treatment. FIG. 3A—an image showing the damage caused by the tomato leaf miner, the insect moth Tuta absoluta on tomato leaflet. FIG. 3B—a vertical bar graph showing severity of damage of Tuta absoluta on tomato leaves treated with drench or spray of 4 mM solution phenylalanine. Disease was evaluated on a 0-100% severity of symptoms coverage and calculation of area under disease progress curve (AUDPC) 13 days after treatment. […] Symptoms incidence per plant was evaluated 30 days after treatment. […] FIG. 3C—a vertical bar graph showing the effect of 4 mM Phe solution on the incidence of tomato leaf miner on tomato plants. The Phe solution was applied by spraying and by drench on the tomato plants at 3 days before and 4 hours before incubation in the greenhouse. Infection was natural. FIG. 3D—a vertical bar graph showing the effect of 4 mM Phe solution on the incidence of tomato leaf miner on tomato plants. The Phe solution was applied by spraying and by drench on the tomato plants at 3 days before and 4 hours before incubation in the greenhouse. Infection was natural. Symptoms incidences per plant at large size and at smaller size (up to 1 cm) were evaluated 30 days after treatment. […] FIG. 3E—a vertical bar graph showing the effect of 4 mM Phe solution on the rate of tomato leaf miner symptoms on tomato plants. The Phe solution was applied by spraying and by drench on the tomato plants at 3 days before and 4 hours before incubation in the greenhouse. Infection was natural. Symptoms incidences per plant at large size and at smaller size (up to 1 cm) were evaluated 30 days after treatment and the percent of large symptoms was calculated.
Tomato plants were grown in pots in a nonheated greenhouse where temperatures were 17-32° C. […] Damage of the pest was evaluated according to a 0-100% severity scale where 0=no symptoms followed by a calculation of area under disease progress curve (AUDPC) 13 days after treatment.

[4] = system: Colletotrichum gloeosporioides; assay: Postharvest decay of 'Shelly' mango fruit, wound inoculated; details: for Inhibition of pathogenic activity: postharvest, mango
Method: (§1) FIGS. 4A-4B are graphs showing induced resistance of harvested Mango fruit to fungal pathogens. FIG. […] A day later the treated or untreated fruits were wound inoculated on four spots in each fruit with 7 μl of Lasiodiplodia theobromas conidia suspension (10^6 conidia/ml) and the decay area was monitored for 7 days post inoculation (dpi). FIG. […] A day later the treated or untreated fruits were wound inoculated on four spots in each fruit with 7 μl of Colletotrichum gloeosporioides conidia suspension (10^6 conidia/ml) and the decay area was monitored for 14 days post inoculation (dpi).

[5] = system: Lasiodiplodia theobromae; assay: as above; details: for Inhibition of pathogenic activity: postharvest, mango
Method: as §1

[6] = postharvest treatment of 'Shelly' mango, FIG. 4

Question: With `N[C@@H](Cc1ccccc1)C(=O)O` [Phe, Phenylalanine] as the compound, how does the “Severity of Oidium powdery mildew on tomato leaves” value ([1]; 4 mM Phe solution, drench or spray, each treatment, FIG. 11A) read?
Answer: significantly suppressed

Question: What about the “Severity of Oidium powdery mildew on tomato leaves” value ([1]; spray, 4 mM Phe, 0.1% Shatah 90, or combination, FIG. 11B) of the same compound?
Answer: significantly suppressed

Question: And the “Incidence of the Bemisia tabaci silver leaf whitefly on tomato leaves” value [2]?
Answer: significantly suppressed

Question: What about the “Severity of damage of the moth Tuta absoluta leaf miner on tomato leaves” value ([3]; 4 mM Phe solution, drench or spray, each treatment, FIG. 3C) of the same compound?
Answer: significantly suppressed

Question: And the “Leaf miner symptoms, small (up to 1 cm long) and large” value ([3]; 4 mM Phe spray and Phe drench, 30 days after treatment, FIG. 3D)?
Answer: suppressed

Question: And the “Rate (in %) of larger leaf miner symptoms” value ([3]; 4 mM Phe spray and drench, 30 days after treatment, FIG. 3E)?
Answer: reduced

Question: What about the “Inhibition of pathogenic activity” value ([4]; 2 mM phenylalanine) of the same compound?
Answer: did not suffice

Question: What about the “Inhibition of pathogenic activity” value ([4]; 4 mM phenylalanine) of the same compound?
Answer: substantially inhibited the pathogenic activity

Question: What about the “Decay severity in comparison to the untreated control fruits” value [4, 6] of the same compound?
Answer: reduced the decay severity

Question: And the “Inhibition of pathogenic activity” value ([5]; 2 mM phenylalanine)?
Answer: did not suffice

Question: And the “Inhibition of pathogenic activity” value ([5]; 4 mM phenylalanine)?
Answer: substantially inhibited the pathogenic activity

Question: What about the “Decay severity in comparison to the untreated control fruits” value [5, 6] of the same compound?
Answer: reduced the decay severity
